This is an account of results in patent US20240083861A1, “HSD17B13 INHIBITORS AND USES THEREOF” (FL2022-001, Inc., priority 2020, published 2024).

The first test has as its target T1, Recombinant human HSD17B13 enzyme (Homo sapiens, UniProt Q7Z5P4).
T1 sequence (Q7Z5P4 20-300): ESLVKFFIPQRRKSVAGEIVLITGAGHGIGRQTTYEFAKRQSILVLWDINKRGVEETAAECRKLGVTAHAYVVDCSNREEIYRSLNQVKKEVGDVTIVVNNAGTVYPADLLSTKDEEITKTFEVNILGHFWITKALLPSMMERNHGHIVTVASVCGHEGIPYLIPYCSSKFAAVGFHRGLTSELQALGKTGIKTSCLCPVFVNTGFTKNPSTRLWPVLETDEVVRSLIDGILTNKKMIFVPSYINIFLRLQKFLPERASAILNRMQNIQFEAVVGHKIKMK
Put plainly: HSD17b13 NAD(P)H-Glo biochemical assay. The note with it: 50 uM estradiol, 1 mM NAD+, NAD(P)H-Glo luminescence; read-out: HSD17β13 IC50. The method, boiled down:
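Luminescent NAD(P)H-Glo read-out, taken after 1 hour at RT, measured cofactor reduction. Substrate and cofactor were estradiol at 50 uM and NAD+ at 1 mM final, reacted with the recombinant human enzyme for 3 hours at 37° C in 20 mM Tris pH7.4, 0.002% Tween-20, 0.02% BSA. Compound was pre-incubated with enzyme for 20 minutes at RT.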
For the compound `CN(c1cc2c(cn1)c(-c1cc(C(F)(F)F)c(F)c(O)c1F)nn2C)C1CCC1` [Compound 9.07, 3-(6-(Cyclobutyl(methyl)amino)-1-methyl-1H-pyrazolo[4,3-c]pyridin-3-yl)-2,6-difluoro-5-(trifluoromethyl)phenol], the half-maximal inhibitory concentration (IC50) was below 100 nM.
Still for that read-out and setting: the figure for `CN(C)CC1CN(c2ncc3c(-c4cc(C(F)(F)F)c(F)c(O)c4F)nn(C)c3n2)CCO1` (stereo not shown) [Compound 18.33, 3-(6-(2-((Dimethylamino)methyl)morpholino)-1-methyl-1H-pyrazolo[3,4-d]pyrimidin-3-y1)-2,6-difluoro-5-(trifluoromethyl)phenol] is 100 to 1000 nM.
On the same count and under the same terms, the value for `CC(C)N1CCN(c2cc3c(cn2)c(-c2cc(C(F)(F)F)c(F)c(O)c2F)nn3C)CC1=O` [Compound 9.63, 4-(3-(2,4-Difluoro-3-hydroxy-5-(trifluoromethyl)phenyl)-1-methyl-1H-pyrazolo[4,3-c]pyridin-6-yl)-1-isopropylpiperazin-2-one] was below 100 nM; that for `Cn1nc(-c2cc(C(F)(F)F)cc(O)c2F)c2ccc(N3CCN(S(C)(=O)=O)CC3)cc21` [Compound 9.02, 2-Fluoro-3-(1-methyl-6-(4-(methylsulfonyl)piperazin-1-yl)-1H-indazol-3-yl)-5-(trifluoromethyl)phenol] was 1000 to 30000 nM.
For `Cn1nc(-c2cc(C(F)(F)F)c(F)c(O)c2F)c2ncc(N3CCOCC34CC4)cc21` [Compound 9.119, 2,6-Difluoro-3-(1-methyl-6-(7-oxa-4-azaspiro[2.5]octan-4-yl)-1H-pyrazolo[4,3-b]pyridin-3-yl)-5-(trifluoromethyl)phenol], the 50% inhibitory concentration (IC50) was below 100 nM.
Consider `Cn1nc(-c2cc(O)c(F)c(C(F)(F)F)c2)c2ccc(C3=CCN(S(C)(=O)=O)CC3)cc21` [Compound 14.01, 2-Fluoro-5-(1-methyl-6-(1-(methylsulfonyl)-1,2,3,6-tetrahydropyridin-4-y1)-1H-indazol-3-y1)-3-(trifluoromethyl)phenol], for which the 50% inhibitory concentration (IC50) was below 100 nM.
Still for that read-out and setting: the value for `Cn1nc(-c2cc(C(F)(F)F)c(F)c(O)c2F)c2cnc(N3CCN(C(=O)C4CC4)CC3)nc21` [Compound 18.123, Cyclopropyl(4-(3-(2,4-difluoro-3-hydroxy-5-(trifluoromethyl)phenyl)-1-methyl-1H-pyrazolo[3,4-d]pyrimidin-6-y1)piperazin-1-yl)methanone] was below 100 nM.
As for `Cn1nc(-c2cc(C(F)(F)F)c(F)c(O)c2F)c2cnc(N3CCOCC3(C)C)cc21` [Compound 9.31, 3-(6-(3,3-Dimethylmorpholino)-1-methyl-1H-pyrazolo[4,3-c]pyridine-3-yl)-2,6-difluoro-5-(trifluoromethyl)phenol], the half-maximal inhibitory concentration (IC50) is below 100 nM.
The same measure, in the same setting: the figure for `CC(C)N1CCN(c2ncc3c(-c4cc(C(F)(F)F)c(F)c(O)c4F)nn(C)c3n2)CC1` [Compound 18.73, 2,6-Difluoro-3-(6-(4-isopropylpiperazin-1-yl)-1-methyl-1H-pyrazolo[3,4-d]pyrimidin-3-yl)-5-(trifluoromethyl)phenol] is 100 to 1000 nM; for `Cn1nc(-c2cc(C(F)(F)F)cc(O)c2F)c2cnc(C3CCN(S(C)(=O)=O)CC3)cc21` [Compound 13.01, 2-Fluoro-3-(1-methyl-6-(1-(methylsulfonyl)piperidin-4-yl)-1H-pyrazolo[4,3-c]pyridin-3-yl)-5-(trifluoromethyl)phenol] it is 100 to 1000 nM; for `Cn1nc(-c2cc(C(F)(F)F)c(F)c(O)c2F)c2cnc(N(C3CCOCC3)C3CC3)cc21` [Compound 9.129, 3-(6-(Cyclopropyl(tetrahydro-2H-pyran-4-yl)amino)-1-methyl-1H-pyrazolo[4,3-c]pyridin-3-yl)-2,6-difluoro-5-(trifluoromethyl)phenol] it is below 100 nM.
Still for that read-out and setting: the value for `Cn1nc(-c2cc(C(F)(F)F)c(F)c(O)c2F)c2cnc(N3CCC4(CCCO4)CC3)nc21` [Compound 18.99, 2,6-Difluoro-3-(1-methyl-6-(1-oxa-8-azaspiro[4.5]decan-8-yl)-1H-pyrazolo[3,4-d]pyrimidin-3-y1)-5-(trifluoromethyl)phenol] was below 100 nM; that for `Cn1nc(-c2cc(C(F)(F)F)c(F)c(O)c2F)c2cnc(N3CCCC34CCOCC4)cc21` [Compound 9.99, 2,6-Difluoro-3-(1-methyl-6-(8-oxa-1-azaspiro[4.5]decan-1-yl)-1H-pyrazolo[4,3-c]pyridin-3-yl)-5-(trifluoromethyl)phenol] was below 100 nM; that for `Cn1nc(-c2cc(C(F)(F)F)c(F)c(O)c2F)c2cnc(N3CCC4(CC3)CC(=O)N4)nc21` [Compound 18.16, 7-(3-(2,4-Difluoro-3-hydroxy-5-(trifluoromethyl)phenyl)-1-methyl-1H-pyrazolo[3,4-d]pyrimidin-6-yl)-1,7-diazaspiro[3.5]nonan-2-one] was below 100 nM.
With `Cn1nc(-c2cc(C(F)(F)F)c(F)c(O)c2F)c2cnc(N3CCC(C(N)=O)CC3)nc21` [Compound 18.09, 1-(3-(2,4-Difluoro-3-hydroxy-5-(trifluoromethyl)phenyl)-1-methyl-1H-pyrazolo[3,4-d]pyrimidin-6-yl)piperidine-4-carboxamide], the half-inhibitory concentration (IC50) is below 100 nM.
`COCC1COCCN1c1ncc2c(-c3cc(C(F)(F)F)c(F)c(O)c3F)nn(C)c2n1` (stereo not shown) [Compound 18.03, 2,6-Difluoro-3-(6-(3-(methoxymethyl)morpholino)-1-methyl-1H-pyrazolo[3,4-d]pyrimidin-3-y1)-5-(trifluoromethyl)phenol]: the IC50 was below 100 nM.
In the case of `CS(=O)(=O)N1CCC(c2ccc3c(-c4cc(O)c(F)c(C(F)(F)F)c4)n[nH]c3c2)CC1` [Compound 15, 2-Fluoro-5-(6-(1-(methylsulfonyl)piperidin-4-yl)-1H-indazol-3-yl)-3-(trifluoromethyl)phenol], the IC50 was 100 to 1000 nM.
As to `Cn1nc(-c2cc(C(F)(F)F)c(F)c(O)c2F)c2cnc(N3CCOC(c4ncc[nH]4)C3)nc21` (stereo not shown) [Compound 18.79, 3-(6-(2-(1H-Imidazol-2-yl)morpholino)-1-methyl-1H-pyrazolo[3,4-d]pyrimidin-3-y1)-2,6-difluoro-5-(trifluoromethyl)phenol], the IC50 fell in the range of 100 to 1000 nM.
Take `Cn1nc(-c2cc(C(F)(F)F)c(F)c(O)c2F)c2cnc(N3CCN(C(=O)Nc4ccccc4)CC3(C)C)cc21` [Compound 21.03, 4-(3-(2,4-Difluoro-3-hydroxy-5-(trifluoromethyl)phenyl)-1-methyl-1H-pyrazolo[4,3-c]pyridin-6-y1)-3,3-dimethyl-N-phenylpiperazine-1-carboxamide]: the IC50 is below 100 nM.
On the same count and under the same terms, the figure for `CN(c1ncc2c(-c3cc(C(F)(F)F)c(F)c(O)c3F)nn(C)c2n1)C1CCNCC1` [Compound 19, 2,6-Difluoro-3-(1-methyl-6-(methyl(piperidin-4-yl)amino)-1H-pyrazolo[3,4-d]pyrimidin-3-y1)-5-(trifluoromethyl)phenol] is 100 to 1000 nM; for `Cn1nc(-c2cc(C(F)(F)F)c(F)c(O)c2F)c2cnc(C3CCN(S(C)(=O)=O)CC3)cc21` [Compound 15.03, 2,6-Difluoro-3-(1-methyl-6-(1-(methylsulfony1)piperidin-4-y1)-1H-pyrazolo[4,3-c]pyridin-3-y1)-5-(trifluoromethyl)phenol] it is 100 to 1000 nM.
With `Cn1nc(-c2cc(C(F)(F)F)c(F)c(O)c2F)c2cnc(N3CCN(S(C)(=O)=O)[C@@H](c4ccccc4)C3)nc21` [Compound 18.109, (S)-2,6-Difluoro-3-(1-methyl-6-(4-(methylsulfony1)-3-phenylpiperazin-1-y1)-1H-pyrazolo[3,4-d]pyrimidin-3-y1)-5-(trifluoromethyl)phenol], the concentration for half-maximal inhibition (IC50) was below 100 nM.
For `Cn1nc(-c2cc(C(F)(F)F)c(F)c(O)c2F)c2cnc(N3CCOCC3CC(=O)O)nc21` (stereo not shown) [Compound 18.40, 2-(4-(3-(2,4-Difluoro-3-hydroxy-5-(trifluoromethyl)phenyl)-1-methyl-1H-pyrazolo[3,4-d]pyrimidin-6-yl)morpholin-3-yl)acetic Acid], the concentration for half-maximal inhibition (IC50) fell in the range of 100 to 1000 nM.
The same measure, in the same setting: the figure for `Oc1cc(-c2nc3cc(-c4ccc(O)c(Cl)c4)ccc3o2)ccc1F` [Compound 3, 2-Chloro-4-(2-(4-fluoro-3-hydroxyphenyl)benzo[d]oxazol-5-yl)phenol] is 100 to 1000 nM.
On the same count and under the same terms, the value for `Cn1nc(-c2cc(C(F)(F)F)c(F)c(O)c2F)c2cnc(N3CCOC(C4CCCCC4)C3)nc21` (stereo not shown) [Compound 18.113, 3-(6-(2-Cyclohexylmorpholino)-1-methyl-1H-pyrazolo[3,4-d]pyrimidin-3-yl)-2,6-difluoro-5-(trifluoromethyl)phenol] was below 100 nM.

The test is the same for the next values; noted with them: at 10 uM compound; read-out: HSD17β13 % inhibition at 10 uM.
For the compound `Cn1nc(-c2cccc(O)c2)c2cnc(N3CCN(S(C)(=O)=O)C4(CC4)C3)nc21` [Compound 12.10, 3-(1-Methyl-6-(4-(methylsulfonyl)-4,7-diazaspiro[2.5]octan-7-yl)-1H-pyrazolo[3,4-d]pyrimidin-3-yl)phenol], the inhibition at 10 µM is below 20%.
In the case of `O=C(NC12CC(C1)C2)c1ccc2oc(-c3cc(C(F)(F)F)cc(O)n3)nc2c1` [Compound 1.31, N-(Bicyclo[1.1.1]pentan-1-yl)-2-(6-hydroxy-4-(trifluoromethyl)pyridin-2-yl)benzo[d]oxazole-5-carboxamide], the inhibition at 10 µM came to 50%.

Still in this test, the particulars now being: at 30 uM compound; read-out: HSD17β13 % inhibition at 30 uM.
Take `CS(=O)(=O)N1CCN(c2ccc3c(-c4ccc(F)c(O)c4F)n[nH]c3c2)CC1` [Compound 11.01, 2,6-Difluoro-3-(6-(4-(methylsulfonyl)piperazin-1-yl)-1H-indazol-3-yl)phenol]: the inhibition at 30 µM came to 41%.

As a reminder, the IC50 is the concentration that gives 50% inhibition. Broadly, the inhibition is the share of the control response that was lost under treatment.
